Experimental data published in patent publication US20250026788A1, “PEPTIDES FOR THE TREATMENT OF CHRONICALLY ACTIVE AUTOIMMUNE INFLAMMATION” (advanceCOR GmbH, priority 2021, published 2025).
Ends that are not written are not given here.

Columns and labels:
[1] = tested on: FIA-CIA (bCII- and hFib-immunized mice which develop RA-like arthritis); details: for overview of the paws: soft tissue enhancement and lymphocyte infiltration (HE sections): right hind paws; for arthritis score: score 0-16 per mouse
[2] = tested on: anti-bCII or anti-hFib antibody titers; assay: Measurement of mouse antibodies by ELISA in sera of treated FIA-CIA mice; assay type: in vivo; details: sera taken on days 35 and 84, 1 mg/kg i.v. on days 14, 35 and 56
Description: Serum was collected on days 0, 14, 35 and 56 of the experiment via bleeding of the tail vein. Treatment with peptides 90091, 90578 (at a concentration of 1 mg/kg body weight) or 0.9% NaCl was applied intravenously on day 14, 35 and 56. Mice were randomly distributed to the three treatment groups. Treatment compounds were numbered 1, 2 and 3. To minimize confounders, each of the three mice per cage received a different treatment. All clinical and histological investigators were blinded to the treatment until data analysis was finished. For comparability between the therapy groups, all mice, including the CFA control mice, received a daily dose of 1 mg/kg Metacam® (meloxicam) from day 14 after the first immunization on until the end of the experiment. Mice were killed on day 84 of the experiments via intracardiac punction and blood withdrawal under ketamine/xylazine anaesthesia.
ELISA plates were coated with 100 μl per well of either 1 μg/ml bCII (Chondrex, Inc.) or 1 μg/ml hFib (Millipore/Calbiochem) or 1 μg/ml citrullinated hFib (Cayman) or CCP peptide at a concentration of 10 μg/ml in coating solution for 1 h. The CCP peptide we used for the selected CCP assay had the following sequence: HQCHQEST(cit)GRSRGRCGRSGS (SEQ ID NO: 2), with disulphide bonds spanning C3-C16.
All subsequent procedures were performed at room temperature (RT) and incubations were done on a microtiter plate shaker. […] After washing, the POD was detected by incubation with 100 μl/well of TMB substrate (Thermo Scientific, #34029) until a maximal optical density (OD) of about 1 to 2 was reached. Finally, the colorimetric reaction was stopped with 100 μl/well stopping solution (1M H2SO4) and the OD determined at a wavelength of 450 nm with a reference wavelength of 595 nm with the Tecan Infinite F 200 plate reader.
For assessment of antibodies, various antigens were coated on ELISA plates, and the sera of the mice were added. Binding of antibodies to the antigens was then measured by adding anti-mouse antibodies labelled with POD.

[3] = 1 mg/kg i.v. on days 14, 35 and 56
[4] = 1 mg/kg i.v. on days 14, 35 and 56, vs NaCl

Row | Compound | ankle and tarsal joint histology (lymphocyte infiltrates, cartilage, pannus) [1, 3] | paw swelling of tarsal joints ([1]; 1 mg/kg i.v. on days 14, 35 and 56, caliper, vs NaCl) | average histology score ([1]; 1 mg/kg i.v. on days 14, 35 and 56, right hind paw HE sections at day 84, score max 15, N=8) | overview of the paws: soft tissue enhancement and lymphocyte infiltration (HE sections) [1, 3] | arthritis score [1, 4] | antibody levels (anti-bCII, anti-hFib titers) ([2]; 1 mg/kg) | antibody levels (anti-bCII, anti-hFib titers) ([2]; listed as Peptide 905778, 1 mg/kg) | adverse effects ([1]; mouse, in vivo, 1 mg/kg) | survival probability (Kaplan-Meier, log-rank) ([1]; 1 mg/kg i.v. on days 14, 35 and 56, mice killed when arthritis too severe) | antibody levels (anti-bCII, anti-hFib titers) [2]
1 | peptide 90578: GEPGIAGFKGEQGPK (SEQ ID NO: 1, bCII 256-270) with a D-fructosyl residue on the lysine at position 264 (position 9) (GEPGIAGFK(D‑fructosyl)GEQGPK; listed as Bos taurus) | the cartilage was intact and there were only a few lymphocyte infiltrates in the subchondral bone | significantly lower swelling on days 49 and 56 | 3.9 | less tissue enhancement and lymphocyte infiltration | tended to be less severe | this effect could not be found in the antibody levels | not Affected by Treatment | – | – | –
2 | Cc1cnc(NC(=O)C2=C(O)c3ccccc3S(=O)(=O)N2C)s1 [meloxicam, reference compound] | – | – | – | – | – | – | – | did not develop any adverse effects | – | –
3 | peptide 90091: non-fructosylated derivative of peptide 90578, amino sequence GEPGIAGFKGEQGPK (SEQ ID No: 1) (CARBOHYD (9)..(9); listed as Bos taurus) [reference compound] | less lymphocyte infiltrates, but also pannus formation and cartilage erosion | – | – | severely enhanced | seemed to enhance arthritis, but not significantly | – | – | – | did not reveal a significant difference between groups | not Affected by Treatment
